According to PMC7251097, “Aspartate/asparagine-β-hydroxylase: a high-throughput mass spectrometric assay for discovery of small molecule inhibitors” (Scientific Reports, 2020):
Structures can show the parent of a compound that is named as a salt. Where two headings read alike, the source gives them in different places.

Molecular target: T1, His6-AspH315–758 (human aspartate/asparagine-β-hydroxylase, AspH) (Homo sapiens, UniProt Q12797)
T1 construct: N-Terminally His6-tagged human AspH315–758 (His6-AspH315–758) was produced in E. coli BL21 (DE3) cells; made in house; host or cells: E. coli BL21 (DE3), pET-28a(+) vector
T1 sequence (Q12797 315-758): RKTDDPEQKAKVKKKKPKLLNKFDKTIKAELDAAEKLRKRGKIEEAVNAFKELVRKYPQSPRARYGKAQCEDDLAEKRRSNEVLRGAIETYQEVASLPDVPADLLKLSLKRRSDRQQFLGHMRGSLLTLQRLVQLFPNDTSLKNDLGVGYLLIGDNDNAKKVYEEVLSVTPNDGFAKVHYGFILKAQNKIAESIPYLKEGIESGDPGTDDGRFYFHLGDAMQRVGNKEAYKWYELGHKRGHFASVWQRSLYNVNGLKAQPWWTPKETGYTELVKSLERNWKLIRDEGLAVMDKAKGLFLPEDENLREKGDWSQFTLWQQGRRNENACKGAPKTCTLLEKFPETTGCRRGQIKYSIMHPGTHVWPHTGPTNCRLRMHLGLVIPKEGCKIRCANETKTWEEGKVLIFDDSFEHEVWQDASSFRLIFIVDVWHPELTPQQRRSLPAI
Assay: SPE-MS AspH inhibition assay (LOPAC screen at fixed 20 μM and IC50 dose-response), hydroxylation of cyclic peptide hFX-CP101–119
Format: biochemical
Details: for IC50: 50 nM His6-AspH315–758, 1.0 μM hFX-CP101–119, 3 μM 2OG, 2 μM Fe(II), 50 mM HEPES pH 7.5, 20 °C, mean ± SD, n = 2 (2,4-PDCA n = 10), read-out: IC50; for Plate 5 (% inhibition) / Plate 5 (% conversion): plate 5 (Pfitzer), test compounds at fixed 20 μM; for Plate 5 (% conversion): mean conversion DMSO 32.88

[1] = LOPAC compound at fixed 20 uM, plate 1, normalised to DMSO and 2,4-PDCA controls
[2] = LOPAC compound at fixed 20 uM, substrate conversion, plate 1
[3] = LOPAC compound at 20uM, plate 2, conversion of substrate peptide
[4] = LOPAC compound at 20uM, plate 2, normalised to DMSO and 2,4-PDCA controls, read-out: Plate 2 (% inhibition)
[5] = LOPAC compound at 20uM, plate 3, conversion of substrate peptide
[6] = AspH activity, fixed compound concentration 20 μM, initial LOPAC screen, 0.5%v/v DMSO, read-out: Inhibition at 20 µM [%]
[7] = LOPAC Plate 4, compound at 20 uM, substrate conversion
[8] = LOPAC compound at 20uM, plate 2, normalised to DMSO and 2,4-PDCA controls

SMILES	Plate 1 (% inhibition) [1] [%]	Plate 1 (% conversion) [2] [%]	other results
Cc1ncsc1CCCl.Cl [Chlormethiazole hydrochloride]	–	–	Plate 1 (% conversion): 33.94%; Plate 1 (% inhibition): 5.75%
CN1C(=O)CCS(=O)(=O)C1c1ccc(Cl)cc1 (stereo not drawn) [Chlormezanone]	–	–	Plate 2 (% conversion): 39.39%; inhibition at 20 µM (read-out: Plate 2 (% inhibition)): -10.3%
CCN(CC)CCCC(C)Nc1ccnc2cc(Cl)ccc12 (stereo not drawn) [Chloroquine diphosphate]	–	–	Plate 1 (% conversion): 38.59%; Plate 1 (% inhibition): -8.09%
NS(=O)(=O)c1cc2c(cc1Cl)N=CNS2(=O)=O [Chlorothiazide]	-4.46	37.37	–
CN(C)CCCN1c2ccccc2Sc2ccc(Cl)cc21 [Chlorpromazine hydrochloride]	-29.45	45.76	–
CCCNC(=O)NS(=O)(=O)c1ccc(Cl)cc1 [Chlorpropamide]	-3.59	37.08	–
CN(C)CC/C=C1/c2ccccc2Sc2ccc(Cl)cc21 [Chlorprothixene hydrochloride]	-27.95	45.26	–
C[N+](C)(C)CCO.[Br-] [Choline bromide]	–	–	Plate 1 (% conversion): 37.78%; Plate 1 (% inhibition): -5.68%
O=C(O)CCC(=O)O.c1ccc(C2(c3ccccc3)CC2C2=NCCN2)cc1 (stereo not drawn) [Cibenzoline succinate]	–	–	Plate 3 (% conversion): 24.00%
Cc1cc(C2CCCCC2)n(O)c(=O)c1 [Ciclopirox olamine, reference compound]	–	–	IC50: 4.39 ± 0.71 µM
CN(C(=O)CCCOc1ccc2[nH]c(=O)ccc2c1)C1CCCCC1 [Cilostamide]	-8.28	38.65	–
O=C1CCc2cc(OCCCCc3nnnn3C3CCCCC3)ccc2N1 [Cilostazol]	-4.97	37.54	–
CN/C(=N/CCSCc1nc[nH]c1C)NC#N [Cimetidine]	-0.45	36.02	–
CCn1nc(C(=O)O)c(=O)c2cc3c(cc21)OCO3 [Cinoxacin]	-6.95	38.21	–
CC(C)(Oc1ccc(C2CC2(Cl)Cl)cc1)C(=O)O (stereo not drawn) [Ciprofibrate]	-0.63	36.08	–
c1ccc(C2CC2)c(OCC2=NCCN2)c1 [Cirazoline hydrochloride]	–	–	Plate 2 (% conversion) [3]: 38.17%; inhibition at 20 µM [4]: -6.62%
N.N.[Cl][Pt][Cl] [Cisplatin]	–	–	Plate 3 (% conversion) [5]: 31.15%
CN(C)CCCC1(c2ccc(F)cc2)OCc2cc(C#N)ccc21 (stereo not drawn) [Citalopram hydrobromide]	-13.21	40.31	–
Cl.Clc1ccc(Cn2c(CN3CCCC3)nc3ccccc32)cc1 [Clemizole hydrochloride]	-13.99	40.57	–

SMILES	Plate 1 (% inhibition) [1] [%]	Plate 1 (% conversion) [2] [%]	other results
O=P(O)(O)C(Cl)(Cl)P(=O)(O)O [Clodronic acid, reference compound]	–	–	inhibition at 20 µM [6]: 100%; Plate 2 (% conversion) [3]: 2.30%; inhibition at 20 µM [4]: 101%
CCOC(=O)C(C)(C)Oc1ccc(Cl)cc1 [Clofibrate]	-11.71	39.80	–
CN(C)CCCN1c2ccccc2CCc2ccc(Cl)cc21 [Clomipramine hydrochloride]	-22.34	43.38	–
Clc1cccc(Cl)c1N=C1NCCN1 [Clonidine hydrochloride]	-13.86	40.53	–
C#CCN(C)CCCOc1ccc(Cl)cc1Cl [Clorgyline hydrochloride]	–	–	Plate 3 (% conversion) [5]: 42.76%
Clc1ccccc1C(c1ccccc1)(c1ccccc1)n1ccnc1 [Clotrimazole]	-28.43	45.42	–
CN1CCN(C2=Nc3cc(Cl)ccc3Nc3ccccc32)CC1 [Clozapine]	-11.65	–	Plate 1 (% conversion): 39.79%
COc1cc2c(c(OC)c1OC)-c1ccc(OC)c(=O)cc1[C@@H](NC(C)=O)CC2 [Colchicine]	–	–	Plate 1 (% conversion): 37.55%; Plate 1 (% inhibition): -5.00%
C[C@]12CCC(=O)C=C1CC[C@@H]1[C@@H]2CC[C@@]2(C)[C@H]1CC[C@]2(O)C(=O)CO [Cortexolone]	–	–	% conversion [7]: 39.11%
C[C@]12C[C@H](O)[C@H]3[C@@H](CCC4=CC(=O)CC[C@@]43C)[C@@H]1CC[C@@H]2C(=O)CO [Corticosterone]	-6.36	38.01	–
CC(=O)OCC(=O)[C@@]1(O)CC[C@H]2[C@@H]3CCC4=CC(=O)CC[C@]4(C)[C@H]3C(=O)C[C@@]21C [Cortisone 21-acetate]	4.10	34.50	–
C[C@]12CCC(=O)C=C1CC[C@@H]1[C@@H]2C(=O)C[C@@]2(C)[C@H]1CC[C@]2(O)C(=O)CO [Cortisone]	-8.46	38.71	–
C[C@@H](Oc1cc(-c2cnn(C3CCNCC3)c2)cnc1N)c1c(Cl)ccc(F)c1Cl [Crizotinib]	–	–	Plate 5 (% inhibition): -31.92%; Plate 5 (% conversion): 47.18%
CN(C)CCC=C1c2ccccc2C=Cc2ccccc21 [Cyclobenzaprine hydrochloride]	-15.86	41.20	–
O=P1(N(CCCl)CCCl)NCCCO1 (stereo not drawn) [Cyclophosphamide monohydrate]	–	–	Plate 1 (% conversion): 38.48%; Plate 1 (% inhibition): -7.77%
CN1CCC(=C2c3ccccc3C=Cc3ccccc32)CC1 [Cyproheptadine hydrochloride]	-17.18	41.64	–
CC(=O)O[C@]1(C(C)=O)CC[C@H]2[C@@H]3C=C(Cl)C4=CC(=O)[C@@H]5C[C@@H]5[C@]4(C)[C@H]3CC[C@@]21C [Cyproterone acetate]	-9.70	39.13	–
NCCSSCCN [Cystamine dihydrochloride]	-7.76	38.48	–
Cl.NCCS [Cysteamine hydrochloride]	–	–	Plate 3 (% conversion) [5]: 40.01%

SMILES	Plate 1 (% inhibition) [1] [%]	Plate 1 (% conversion) [2] [%]	other results
S=C([S-])OC1CC2CC1C1CCCC21.[K+] [D-609 potassium]	–	–	% conversion: 29.00%
N[C@@H]1CON=C1O [D-Cycloserine]	-7.97	38.55	–
N[C@H](CO)C(=O)O [D-Serine]	–	–	% conversion [7]: 29.64%
OC[C@H]1OC(n2cnc3ccccc32)[C@H](O)[C@@H]1O (stereo partly drawn) [D-ribofuranosylbenzimidazole]	–	–	Plate 2 (% conversion) [3]: 37.89%; Plate 2 (% inhibition) [8]: -5.77%
O=C1NC(=O)c2cc(Nc3ccccc3)c(Nc3ccccc3)cc21 [DAPH]	-7.17	38.28	–
Clc1ccc(N2C[C@H]3CC[C@@H](C2)N3)nn1 [DBO-83]	–	–	Plate 2 (% conversion) [3]: 32.84%; Plate 2 (% inhibition) [8]: 9.30%
CCn1c(=O)[nH]c2cc(Cl)c(Cl)cc21 [DCEBIO]	–	–	Plate 2 (% conversion) [3]: 39.27%; Plate 2 (% inhibition) [8]: -9.89%
Fc1cccc(/C=N/N=C/c2cccc(F)c2)c1 [DFB]	–	–	Plate 3 (% conversion) [5]: 35.73%
c1ccc(-c2cnn3cc(-c4ccc(OCCN5CCOCC5)cc4)cnc23)cc1 [DMH4]	-35.30	47.73	–
CC(C)[C@@H]1CC[C@@H](C)C[C@@H]1P(=O)(c1ccccc1)c1ccccc1 [DPO-1]	–	–	Plate 2 (% conversion) [3]: 40.63%; Plate 2 (% inhibition) [8]: -13.96%
CN(C)NC(=O)CCC(=O)O [Daminozide, daminozide, reference compound]	–	–	IC50 [μM] (pH 7.5): inactive
C#C[C@]1(O)CC[C@H]2[C@@H]3CCC4=Cc5oncc5C[C@]4(C)[C@H]3CC[C@@]21C [Danazol]	–	–	Plate 2 (% conversion) [3]: 39.67%; inhibition at 20 µM [4]: -11.1%
O=c1ccc2ccc(O)c(O)c2o1 [Daphnetin, reference compound]	–	–	inhibition at 20 µM [6]: 98.5%
C[N+](C)(C)CCCCCCCCCC[N+](C)(C)C.[Br-].[Br-] [Decamethonium dibromide]	–	–	Plate 2 (% conversion): 41.52%; Plate 2 (% inhibition) (20 µM): -16.63%
O=C(O)c1ccc(-n2nc(-c3ccccc3O)nc2-c2ccccc2O)cc1 [Deferasirox, reference compound]	–	–	IC50: 2.08 ± 0.81 µM
Cc1c(O)c(=O)ccn1C [Deferiprone, reference compound]	–	–	IC50: 4.89 ± 0.37 µM
CC(=O)N(O)CCCCCNC(=O)CCC(=O)N(O)CCCCCNC(=O)CCC(=O)N(O)CCCCCN [Deferoxamine mesylate, reference compound]	–	–	IC50: 3.16 ± 0.93 µM
CC(C)Nc1cccnc1N1CCN(C(=O)c2cc3cc(NS(C)(=O)=O)ccc3[nH]2)CC1 [Delavirdine]	–	–	Plate 5 (% inhibition): 28.61%; Plate 5 (% conversion): 26.58%
